Experimental data taken from patent US11780839B2, “Compounds for treating Huntington's disease” (PTC THERAPEUTICS, INC., priority 2018, dated 2023).

Each compound was assayed on Endogenous Huntingtin Protein (assay: Endogenous Huntingtin Protein Assay (ELISA-based Meso Scale Discovery electrochemiluminescence)). Conditions: MSD electrochemiluminescence, Table 1.
Type: cell-based
Procedure, shortened: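 Huntingtin was captured overnight at 4 °C on plates coated with 1 μg/mL MW1 (polyQ-expanded) or MAB2166 antibody and BSA-blocked. Detection used a rabbit monoclonal and then a SULFO-TAG goat anti-rabbit antibody (0.25 μg/mL, 1 h each, room temperature). Signal was read by electrochemiluminescence.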

| SMILES | IC50 [µM] |
| --- | --- |
| COc1cc(-c2ccc(-c3cnc(N(C)C4CC(C)(C)NC(C)(C)C4)nn3)c(O)c2)nn2ccnc12 [Cpd 304, 5-(8-methoxyimidazo[1,2-b]pyridazin-6-yl)-2-{3-[methyl(2,2,6,6-tetramethylpiperidin-4-yl)amino]-1,2,4-triazin-6-yl}phenol] | ≤ 0.1 |
| CC1(C)CC(Nc2ncc(-c3ccc(-c4cncnn4)cc3O)nn2)CC(C)(C)N1 [Cpd 305, 2-{3-[(2,2,6,6-tetramethylpiperidin-4-yl)amino]-1,2,4-triazin-6-yl}-5-(1,2,4-triazin-6-yl)phenol] | ≤ 0.1 |
| Oc1cc(-c2cn[nH]c2)ccc1-c1cnc(N2C[C@@H]3CCCN[C@@H]3C2)nn1 [Cpd 306, 2-{3-[(4aS,7aS)-octahydro-6H-pyrrolo[3,4-b]pyridin-6-yl]-1,2,4-triazin-6-yl}-5-(1H-pyrazol-4-yl)phenol] | 0.1 to 0.5 |
| CC(C)NC1CCN(c2ncc(-c3ccc(-c4cnc5c(cnn5C)c4)cc3O)nn2)C1 (centres unmarked) [Cpd 307, 5-(1-methyl-1H-pyrazolo[3,4-b]pyridin-5-yl)-2-(3-{3-[(propan-2-yl)amino]pyrrolidin-1-yl}-1,2,4-triazin-6-yl)phenol] | > 0.5 |
| CC(C)NC1CCN(c2ncc(-c3ccc(-c4ncco4)cc3O)nn2)C1 (stereo not drawn) [Cpd 308, 5-(1,3-oxazol-2-yl)-2-(3-{3-[(propan-2-yl)amino]pyrrolidin-l-yl}-1,2,4-triazin-6-yl)phenol] | 0.1 to 0.5 |
| CN1CC[C@H](Oc2ncc(-c3ccc(-c4cn[nH]c4)cc3O)nn2)C1 [Cpd 309, 2-(3-{[(3S)-1-methylpyrrolidin-3-yl]oxy}-1,2,4-triazin-6-yl)-5-(1H-pyrazol-4-yl)phenol] | > 0.5 |
| CN1CCC[C@H]2CN(c3ncc(-c4ccc(-c5cn[nH]c5)cc4O)nn3)C[C@H]21 [Cpd 310, 2-{3-[(4aS,7aS)-1-methyloctahydro-6H-pyrrolo[3,4-b]pyridin-6-yl]-1,2,4-triazin-6-yl}-5-(1H-pyrazol-4-yl)phenol] | 0.1 to 0.5 |
| CN1CCO[C@@H]2CN(c3ncc(-c4ccc(-c5cn[nH]c5)cc4O)nn3)C[C@@H]21 [Cpd 311, 2-{3-[(4aS,7aR)-4-methylhexahydropyrrolo[3,4-b][1,4]oxazin-6(2H)-yl]-1,2,4-triazin-6-yl}-5-(1H-pyrazol-4-yl)phenol] | 1 to 3 |
| Oc1cc(-c2cn[nH]c2)ccc1-c1cnc(N2CCC(NC3COC3)C2)nn1 (centres unmarked) [Cpd 312, 2-(3-{3-[(oxetan-3-yl)amino]pyrrolidin-1-yl}-1,2,4-triazin-6-yl)-5-(1H-pyrazol-4-yl)phenol] | 1 to 3 |
| Cn1cc(-c2ccc(-c3cnc(N4CCC(NC5COC5)C4)nn3)c(O)c2)cn1 (centres unmarked) [Cpd 313, 5-(1-methyl-1H-pyrazol-4-yl)-2-(3-{3-[(oxetan-3-yl)amino]pyrrolidin-1-yl}-1,2,4-triazin-6-yl)phenol] | 1 to 3 |
| CC1(C)CC(Nc2ncc(-c3ccc(-c4ccnnc4)cc3O)nn2)CC(C)(C)N1 [Cpd 314, 5-(pyridazin-4-yl)-2-{3-[(2,2,6,6-tetramethylpiperidin-4-yl)amino]-1,2,4-triazin-6-yl}phenol] | ≤ 0.1 |
| CC1(C)CC(Nc2ncc(-c3ccc(Nc4cccnc4)cc3O)nn2)CC(C)(C)N1 [Cpd 315, 5-[(pyridin-3-yl)amino]2-{3-[(2,2,6,6-tetramethylpiperidin-4-yl)amino]-1,2,4-triazin-6-yl}phenol] | ≤ 0.1 |
| CC(C)(CF)NC1CCN(c2ncc(-c3ccc(-c4cn[nH]c4)cc3O)nn2)C1 (centres unmarked) [Cpd 316, 2-(3-{3-[(1-fluoro-2-methylpropan-2-yl)amino]pyrrolidin-1-yl}-1,2,4-triazin-6-yl)-5-(1H-pyrazol-4-yl)phenol] | ≤ 0.1 |
| CCNC1CCN(c2ncc(-c3ccc(-c4cn[nH]c4)cc3O)nn2)C1 (centres unmarked) [Cpd 317, 2-{3-[3-(ethylamino)pyrrolidin-1-yl]-1,2,4-triazin-6-yl}-5-(1H-pyrazol-4-yl)phenol] | ≤ 0.1 |
| CN(C)C1CCN(c2ncc(-c3ccc(-c4cn[nH]c4)cc3O)nn2)C1 (centres unmarked) [Cpd 318, 2-{3-[3-(dimethylamino)pyrrolidin-1-yl]-1,2,4-triazin-6-yl}-5-(1H-pyrazol-4-yl)phenol] | 0.1 to 0.5 |
| Cn1ncc2cc(-c3ccc(-c4cnc(NC5CC(C)(C)NC(C)(C)C5)nn4)c(O)c3)ccc21 [Cpd 319, 5-(1-methyl-1H-indazol-5-yl)-2-{3-[(2,2,6,6-tetramethylpiperidin-4-yl)amino]-1,2,4-triazin-6-yl}phenol] | ≤ 0.1 |
| CNC1CCN(c2ncc(-c3ccc(-c4nnn(C)n4)cc3O)nn2)C1 (centres unmarked) [Cpd 320, 2-{3-[3-(methylamino)pyrrolidin-1-yl]-1,2,4-triazin-6-yl}-5-(2-methyl-2H-tetrazol-5-yl)phenol] | 0.1 to 0.5 |
| Cn1ncc2cc(-c3ccc(-c4cnc(NC5CC(C)(C)NC(C)(C)C5)nn4)c(O)c3)cnc21 [Cpd 321, 5-(1-methyl-1H-pyrazolo[3,4-b]pyridin-5-yl)-2-{3-[(2,2,6,6-tetramethylpiperidin-4-yl)amino]-1,2,4-triazin-6-yl}phenol] | ≤ 0.1 |
| CC1(C)C[C@H](Nc2ncc(-c3ccc(-c4cn[nH]c4)cc3O)nn2)[C@H](F)C(C)(C)N1 [Cpd 322, 2-(3-{[(3S,4S)-3-fluoro-2,2,6,6-tetramethylpiperidin-4-yl]amino}-1,2,4-triazin-6-yl)-5-(1H-pyrazol-4-yl)phenol] | ≤ 0.1 |

The remaining lines, values ahead:

| IC50 [µM] | SMILES |
| --- | --- |
| ≤ 0.1 | CC1(C)C[C@@H](Nc2ncc(-c3ccc(-c4cn[nH]c4)cc3O)nn2)[C@@H](F)C(C)(C)N1 [Cpd 323, 2-(3-{[(3R,4R)-3-fluoro-2,2,6,6-tetramethylpiperidin-4-yl]amino}-1,2,4-triazin-6-yl)-5-(1H-pyrazol-4-yl)phenol] |
| ≤ 0.1 | CC1(C)CC(Nc2ncc(-c3ccc(-n4nccn4)cc3O)nn2)C(F)C(C)(C)N1 (centres unmarked) [Cpd 324, 2-{3-[(3-fluoro-2,2,6,6-tetramethylpiperidin-4-yl)amino]-1,2,4-triazin-6-yl}-5-(2H-1,2,3-triazol-2-yl)phenol] |
| 0.1 to 0.5 | CC1(NC2CCN(c3ncc(-c4ccc(-c5cn[nH]c5)cc4O)nn3)C2)COC1 (centres unmarked) [Cpd 325] |
| ≤ 0.1 | Cc1cn(-c2ccc(-c3cnc(N4CCC(NC(C)C)C4)nn3)c(O)c2)cn1 (centres unmarked) [Cpd 326, 5-(4-methyl-1H-imidazol-1-yl)-2-(3-{3-[(propan-2-yl)amino]pyrrolidin-1-yl}-1,2,4-triazin-6-yl)phenol] |
| ≤ 0.1 | Oc1cc(-c2cn[nH]c2)ccc1-c1cnc(N2C[C@H]3CNCC[C@H]3C2)nn1 [Cpd 327, 2-{3-[(3aR,7aR)-octahydro-2H-pyrrolo[3,4-c]pyridin-2-yl]-1,2,4-triazin-6-yl}-5-(1H-pyrazol-4-yl)phenol] |
| 0.1 to 0.5 | Oc1cc(-c2cn[nH]c2)ccc1-c1cnc(N2CCNCC2)nn1 [Cpd 328, 2-[3-(piperazin-1-yl)-1,2,4-triazin-6-yl]-5-(1H-pyrazol-4-yl)phenol] |
| 0.1 to 0.5 | C[C@H](CF)N[C@H]1CCN(c2ncc(-c3ccc(-c4cn[nH]c4)cc3O)nn2)C1 [Cpd 329, 2-{3-[(3S)-3-{[(2R)-1-fluoropropan-2-yl]amino}pyrrolidin-l-yl]-1,2,4-triazin-6-yl}-5-(1H-pyrazol-4-yl)phenol] |
| 1 to 3 | CC(C)NC1CCN(c2ncc(-c3ccc(-c4ccc5c(cnn5C)c4)cc3O)nn2)C1 (centres unmarked) [Cpd 330, 5-(1-methyl-1H-indazol-5-yl)-2-(3-{3-[(propan-2-yl)amino]pyrrolidin-1-yl}-1,2,4-triazin-6-yl)phenol] |
| 0.1 to 0.5 | CC(C)NC1CCN(c2ncc(-c3ccc(-n4ccnc4)cc3O)nn2)C1 (centres unmarked) [Cpd 331] |
| ≤ 0.1 | Oc1cc(-c2cn[nH]c2)ccc1-c1cnc(N2CC[C@H]3NCC[C@@H]32)nn1 [Cpd 332, 2-{3-[(3aR,6aS)-hexahydropyrrolo[3,2-b]pyrrol-1(2H)-yl]-1,2,4-triazin-6-yl}-5-(1H-pyrazol-4-yl)phenol] |
| ≤ 0.1 | OCCNC1CCN(c2ncc(-c3ccc(-c4cn[nH]c4)cc3O)nn2)C1 (centres unmarked) [Cpd 333, 2-(3-{3-[(2-hydroxyethyl)amino]pyrrolidin-1-yl}-1,2,4-triazin-6-yl)-5-(1H-pyrazol-4-yl)phenol] |
| 1 to 3 | NC1CN(c2ncc(-c3ccc(-c4cn[nH]c4)cc3O)nn2)CC12COC2 (centres unmarked) [Cpd 334, 2-[3-(8-amino-2-oxa-6-azaspiro[3.4]octan-6-yl)-1,2,4-triazin-6-yl]-5-(1H-pyrazol-4-yl)phenol] |
| ≤ 0.1 | Oc1cc(-c2cn[nH]c2)ccc1-c1cnc(N2CCC(NC3CCOCC3)C2)nn1 (centres unmarked) [Cpd 335, 2-(3-{3-[(oxan-4-yl)amino]pyrrolidin-1-yl}-1,2,4-triazin-6-yl)-5-(1H-pyrazol-4-yl)phenol] |
| ≤ 0.1 | COCC(C)NC1CCN(c2ncc(-c3ccc(-c4cn[nH]c4)cc3O)nn2)C1 (centres unmarked) [Cpd 336, 2-(3-{3-[(1-methoxypropan-2-yl)amino]pyrrolidin-1-yl}-1,2,4-triazin-6-yl)-5-(1H-pyrazol-4-yl)phenol] |
| ≤ 0.1 | Oc1cc(-c2cn[nH]c2)ccc1-c1cnc(N2CC3CNCC3C2)nn1 (centres unmarked) [Cpd 337, 2-[3-(hexahydropyrrolo[3,4-c]pyrrol-2(1H)-yl)-1,2,4-triazin-6-yl]-5-(1H-pyrazol-4-yl)phenol] |
| 0.1 to 0.5 | CC(C)NC1CCN(c2ncc(-c3ccc(-n4cc(F)cn4)cc3O)nn2)C1 (centres unmarked) [Cpd 338, 5-(4-fluoro-1H-pyrazol-1-yl)-2-(3-{3-[(propan-2-yl)amino]pyrrolidin-1-yl}-1,2,4-triazin-6-yl)phenol] |
| ≤ 0.1 | Oc1cc(-c2cn[nH]c2)ccc1-c1cnc(N2CCC3(CCCN3)C2)nn1 (centres unmarked) [Cpd 339, 2-[3-(1,7-diazaspiro[4.4]nonan-7-yl)-1,2,4-triazin-6-yl]-5-(1H-pyrazol-4-yl)phenol] |
| ≤ 0.1 | CC1(NC2CCN(c3ncc(-c4ccc(-c5cn[nH]c5)cc4O)nn3)C2)CC1 (centres unmarked) [Cpd 340, 2-(3-{3-[(1-methylcyclopropyl)amino]pyrrolidin-1-yl}-1,2,4-triazin-6-yl)-5-(1H-pyrazol-4-yl)phenol] |
| ≤ 0.1 | COCC(C)(C)NC1CCN(c2ncc(-c3ccc(-c4cn[nH]c4)cc3O)nn2)C1 (centres unmarked) [Cpd 341, 2-(3-{3-[(1-methoxy-2-methylpropan-2-yl)amino]pyrrolidin-1-yl}-1,2,4-triazin-6-yl)-5-(1H-pyrazol-4-yl)phenol] |
